Data: ChEMBL document CHEMBL1909294, “Translating clinical findings into knowledge in drug safety evaluation--drug induced liver injury prediction system (DILIps)” (PLoS Comput Biol, 2011)

Columns and labels:
Hepatotoxicity [1] = test system: Hepatotoxicity;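 on HepSE Combined Scores: combined hepatic side effect score as listed in the training data of the Drug Induced Liver Injury Prediction System (DILIps)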;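 on HepSE cholecystitis: Cholecystitis-related hepatic side effect score drawn from the DILIps (drug-induced liver injury prediction) training data set; call rule not given here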;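 on HepSE elevated liver function tests: hepatic side effect score for raised liver function tests, as recorded in the DILIps training set used for predicting drug-induced liver injury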; on HepSE hepatic failure: call rule not given here;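 on HepSE hepatic necrosis: score of hepatic side effects for hepatic necrosis, drawn from the training data of DILIps, a prediction system for drug-induced liver injury; call rule not given here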;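 on HepSE hepatomegaly: hepatic side effect score for hepatomegaly, taken from the training set of the DILIps drug-induced liver injury prediction system; call rule not given here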;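 on HepSE jaundice: Jaundice-related hepatic side-effect score drawn from the training data of the DILIps (drug-induced liver injury prediction system); call rule not given here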
Hepatotoxicity [2] = test system: Hepatotoxicity; remark: listed apart in the source;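 on HepSE cholecystitis: Cholecystitis-related hepatic side effect score drawn from the DILIps (drug-induced liver injury prediction) training data set; call rule not given here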;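 on HepSE elevated liver function tests: hepatic side effect score for raised liver function tests, as recorded in the DILIps training set used for predicting drug-induced liver injury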; on HepSE hepatic failure: call rule not given here;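 on HepSE hepatic necrosis: score of hepatic side effects for hepatic necrosis, drawn from the training data of DILIps, a prediction system for drug-induced liver injury; call rule not given here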;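 on HepSE hepatomegaly: hepatic side effect score for hepatomegaly, taken from the training set of the DILIps drug-induced liver injury prediction system; call rule not given here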;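 on HepSE jaundice: Jaundice-related hepatic side-effect score drawn from the training data of the DILIps (drug-induced liver injury prediction system); call rule not given here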
Hepatotoxicity [3] = test system: Hepatotoxicity; remark: listed apart in the source;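 on HepSE cholecystitis: Cholecystitis-related hepatic side effect score drawn from the DILIps (drug-induced liver injury prediction) training data set; call rule not given here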;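 on HepSE elevated liver function tests: hepatic side effect score for raised liver function tests, as recorded in the DILIps training set used for predicting drug-induced liver injury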; on HepSE hepatic failure: call rule not given here;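 on HepSE hepatic necrosis: score of hepatic side effects for hepatic necrosis, drawn from the training data of DILIps, a prediction system for drug-induced liver injury; call rule not given here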;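 on HepSE hepatomegaly: hepatic side effect score for hepatomegaly, taken from the training set of the DILIps drug-induced liver injury prediction system; call rule not given here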;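 on HepSE jaundice: Jaundice-related hepatic side-effect score drawn from the training data of the DILIps (drug-induced liver injury prediction system); call rule not given here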
Hepatotoxicity [4] = test system: Hepatotoxicity; remark: listed apart in the source;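 on HepSE cholecystitis: Cholecystitis-related hepatic side effect score drawn from the DILIps (drug-induced liver injury prediction) training data set; call rule not given here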;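 on HepSE elevated liver function tests: hepatic side effect score for raised liver function tests, as recorded in the DILIps training set used for predicting drug-induced liver injury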; on HepSE hepatic failure: call rule not given here;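 on HepSE hepatic necrosis: score of hepatic side effects for hepatic necrosis, drawn from the training data of DILIps, a prediction system for drug-induced liver injury; call rule not given here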;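 on HepSE hepatomegaly: hepatic side effect score for hepatomegaly, taken from the training set of the DILIps drug-induced liver injury prediction system; call rule not given here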;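 on HepSE jaundice: Jaundice-related hepatic side-effect score drawn from the training data of the DILIps (drug-induced liver injury prediction system); call rule not given here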
Hepatotoxicity [5] = test system: Hepatotoxicity; remark: listed apart in the source; on HepSE hepatic failure: call rule not given here
Hepatotoxicity [6] = test system: Hepatotoxicity; remark: listed apart in the source; on HepSE hepatic failure: call rule not given here
Hepatotoxicity [7] = test system: Hepatotoxicity; remark: listed apart in the source
Hepatotoxicity [8] = test system: Hepatotoxicity; remark: listed apart in the source
Hepatotoxicity [9] = test system: Hepatotoxicity; remark: listed apart in the source
Hepatotoxicity [10] = test system: Hepatotoxicity; remark: listed apart in the source
Hepatotoxicity [11] = test system: Hepatotoxicity; remark: listed apart in the source
Hepatotoxicity [12] = test system: Hepatotoxicity; remark: listed apart in the source
Hepatotoxicity [13] = test system: Hepatotoxicity; remark: listed apart in the source
Hepatotoxicity [14] = test system: Hepatotoxicity; remark: listed apart in the source

SMILES | HepSE_jaundice (Hepatotoxicity [1]) | HepSE_cholecystitis (Hepatotoxicity [2]) | HepSE_hepatic failure (Hepatotoxicity [3]) | HepSE_elevated liver function tests (Hepatotoxicity [4]) | HepSE_hepatomegaly (Hepatotoxicity [5]) | HepSE_hepatic necrosis (Hepatotoxicity [6]) | HepSE_Combined Scores (Hepatotoxicity [7]) | HepSE_hepatitis (Hepatotoxicity [8]) | HepSE_liver fatty (Hepatotoxicity [9]) | HepSE_liver function tests abnormal (Hepatotoxicity [10]) | HepSE_liver disease (Hepatotoxicity [11]) | HepSE_cholelithiasis (Hepatotoxicity [12]) | HepSE_bilirubinemia (Hepatotoxicity [13]) | HepSE_cirrhosis (Hepatotoxicity [14]) | further results
C[N+]1(C)CCCC(OC(=O)C(O)(c2ccccc2)c2ccccc2)C1.[Br-] (configuration not stated) [MEPENZOLATE BROMIDE] | 0 | 0 | 0 | 0 | 0 | 0 | 0 | 0 | 0 | 0 | 0 | 0 | 0 | 0 | 
CCOC(=O)C1(c2ccccc2)CCN(C)CC1 [MEPERIDINE] | 0 | 0 | 0 | 0 | 0 | 0 | 0 | 0 | 0 | 0 | 0 | 0 | 0 | 0 | 
CCC1(c2ccccc2)NC(=O)N(C)C1=O (configuration not stated) [MEPHENYTOIN] | 1 | 0 | 0 | 0 | 0 | 0 | 2 | 1 | 0 | 0 | 0 | 0 | 0 | 0 | 
Cc1cccc(C)c1NC(=O)C1CCCCN1C (configuration not stated) [MEPIVACAINE] | 0 | 0 | 0 | 0 | 0 | 0 | 0 | 0 | 0 | 0 | 0 | 0 | 0 | 0 | 
CCCC(C)(COC(N)=O)COC(N)=O [MEPROBAMATE] | 0 | 0 | 0 | 0 | 0 | 0 | 0 | 0 | 0 | 0 | 0 | 0 | 0 | 0 | 
Sc1ncnc2nc[nH]c12 [MERCAPTOPURINE ANHYDROUS] |  |  |  |  |  |  |  |  |  |  |  |  |  |  | HepSE_jaundice (Hepatotoxicity [1]; Liver): 0; HepSE_cholecystitis (Hepatotoxicity [2]; Liver): 0; HepSE_hepatic failure (Hepatotoxicity [3]; Liver): 0; HepSE_elevated liver function tests (Hepatotoxicity [4]; Liver): 0; HepSE_hepatomegaly (Hepatotoxicity [5]; Liver): 0; HepSE_hepatic necrosis (Hepatotoxicity [6]; Liver): 0; HepSE_Combined Scores (Hepatotoxicity [7]; Liver): 0; HepSE_hepatitis (Hepatotoxicity [8]; Liver): 0; HepSE_liver fatty (Hepatotoxicity [9]; Liver): 0; HepSE_liver function tests abnormal (Hepatotoxicity [10]; Liver): 0; HepSE_liver disease (Hepatotoxicity [11]; Liver): 0; HepSE_cholelithiasis (Hepatotoxicity [12]; Liver): 0; HepSE_bilirubinemia (Hepatotoxicity [13]; Liver): 0; HepSE_cirrhosis (Hepatotoxicity [14]; Liver): 0
C[C@@H](O)[C@H]1C(=O)N2C(C(=O)O)=C(S[C@@H]3CN[C@H](C(=O)N(C)C)C3)[C@H](C)[C@H]12 [MEROPENEM] | 1 | 0 | 1 | 0 | 0 | 0 | 3 | 1 | 0 | 0 | 0 | 0 | 0 | 0 | 
Nc1ccc(O)c(C(=O)O)c1 [MESALAMINE] | 1 | 1 | 1 | 1 | 0 | 1 | 8 | 1 | 0 | 0 | 0 | 1 | 0 | 1 | 
O=S(=O)([O-])CCS.[Na+] [MESNA] | 0 | 0 | 0 | 0 | 0 | 0 | 0 | 0 | 0 | 0 | 0 | 0 | 0 | 0 | 
CN1CCCCC1CCN1c2ccccc2Sc2ccc([S+](C)[O-])cc21 (configuration not stated) [MESORIDAZINE] |  |  |  |  |  |  |  |  |  |  |  |  |  |  | HepSE_jaundice (Hepatotoxicity [1]; Liver): 1; HepSE_cholecystitis (Hepatotoxicity [2]; Liver): 0; HepSE_hepatic failure (Hepatotoxicity [3]; Liver): 0; HepSE_elevated liver function tests (Hepatotoxicity [4]; Liver): 0; HepSE_hepatomegaly (Hepatotoxicity [5]; Liver): 0; HepSE_hepatic necrosis (Hepatotoxicity [6]; Liver): 0; HepSE_Combined Scores (Hepatotoxicity [7]; Liver): 1; HepSE_hepatitis (Hepatotoxicity [8]; Liver): 0; HepSE_liver fatty (Hepatotoxicity [9]; Liver): 0; HepSE_liver function tests abnormal (Hepatotoxicity [10]; Liver): 0; HepSE_liver disease (Hepatotoxicity [11]; Liver): 0; HepSE_cholelithiasis (Hepatotoxicity [12]; Liver): 0; HepSE_bilirubinemia (Hepatotoxicity [13]; Liver): 0; HepSE_cirrhosis (Hepatotoxicity [14]; Liver): 0
CC(C)NCC(O)c1cc(O)cc(O)c1 (configuration not stated) [METAPROTERENOL] | 0 | 0 | 0 | 0 | 0 | 0 | 0 | 0 | 0 | 0 | 0 | 0 | 0 | 0 | 
CN(C)C(=N)N=C(N)N [METFORMIN] |  |  |  |  |  |  |  |  |  |  |  |  |  |  | HepSE_jaundice (Hepatotoxicity [1]; Liver): 0; HepSE_cholecystitis (Hepatotoxicity [2]; Liver): 0; HepSE_hepatic failure (Hepatotoxicity [3]; Liver): 0; HepSE_elevated liver function tests (Hepatotoxicity [4]; Liver): 0; HepSE_hepatomegaly (Hepatotoxicity [5]; Liver): 0; HepSE_hepatic necrosis (Hepatotoxicity [6]; Liver): 0; HepSE_Combined Scores (Hepatotoxicity [7]; Liver): 2; HepSE_hepatitis (Hepatotoxicity [8]; Liver): 1; HepSE_liver fatty (Hepatotoxicity [9]; Liver): 0; HepSE_liver function tests abnormal (Hepatotoxicity [10]; Liver): 1; HepSE_liver disease (Hepatotoxicity [11]; Liver): 0; HepSE_cholelithiasis (Hepatotoxicity [12]; Liver): 0; HepSE_bilirubinemia (Hepatotoxicity [13]; Liver): 0; HepSE_cirrhosis (Hepatotoxicity [14]; Liver): 0
CCC(=O)C(CC(C)N(C)C)(c1ccccc1)c1ccccc1 (configuration not stated) [METHADONE] | 0 | 0 | 0 | 0 | 0 | 0 | 0 | 0 | 0 | 0 | 0 | 0 | 0 | 0 | 
CN[C@@H](C)Cc1ccccc1 [METHAMPHETAMINE] | 0 | 0 | 0 | 0 | 0 | 0 | 0 | 0 | 0 | 0 | 0 | 0 | 0 | 0 | 
CC(=O)/N=c1/sc(S(N)(=O)=O)nn1C [METHAZOLAMIDE] | 0 | 0 | 0 | 0 | 0 | 1 | 1 | 0 | 0 | 0 | 0 | 0 | 0 | 0 | 
C1N2CN3CN1CN(C2)C3 [METHENAMINE] | 0 | 0 | 0 | 0 | 0 | 0 | 0 | 0 | 0 | 0 | 0 | 0 | 0 | 0 | 
COc1ccccc1OCC(O)COC(N)=O (configuration not stated) [METHOCARBAMOL] | 1 | 0 | 0 | 0 | 0 | 0 | 1 | 0 | 0 | 0 | 0 | 0 | 0 | 0 | 
C=CCC1(C(C)C#CCC)C(=O)N=C(O)N(C)C1=O (configuration not stated) [METHOHEXITAL] | 0 | 0 | 0 | 0 | 0 | 0 | 1 | 0 | 0 | 1 | 0 | 0 | 0 | 0 | 
